Literature values, collected in publication PMC10090446, “Population pharmacokinetic analysis and dosing optimization of polymyxin B in critically ill patients” (Frontiers in Pharmacology, 2023).
Like-named read-outs stand apart in the source and are kept apart here. Positions of bridges follow the written chain, without caps; N, C: chain ends. Non-standard residues stand in square brackets, D forms with d. Residues, ends and D or L forms follow the SMILES beside them. *: point of attachment. X1 = CC[C@H](C)CCCCC(=O)*; Dab = NCC[C@H](N)C(=O)O

Conditions: cited from earlier work
Text: TABLE 5 PPK studies of polymyxin B. | column: Estimation of population parameters || Since small samples were employed in this experiment, the non-parametric population modeling algorithm has theoretical advantages over parametric methods in detecting population PK/PD subgroups and outliers ([Goutelle et al., 2022]), so the non-parametric population modeling approach was chosen for modeling in this study. The values of CL (1.24 L h^-1) and V (16.64 L) (Table 3) in this study were in line with the ranges from previous reports, including the CL range (1.2–4.2 L h^-1) ([Sandri et al., 2013]) (Table 3) and the V range (5.63–34.4 L) (Table 5). However, the CL value was lower than t ...

[1] = Acutely ill patients, n = 52, two-compartment model, ref Miglis et al. (2018)
[2] = Critically ill patients with CVVH, n = 53, two-compartment model, ref Wang et al. (2022)
[3] = Critically ill patients with/without CRRT, n = 53, two-compartment model, ref Luo et al. (2022)
[4] = Critically ill patients, n = 24, two-compartment model, ref Sandri et al. (2013)
[5] = Health Volunteers, n = 20, three-compartment model, ref Liu et al. (2021)
[6] = Patients with MDR-GNB infections, n = 46, two-compartment model, ref Wang et al. (2020)
[7] = Patients with/without ECMO, n = 13, non-compartment model, ref Surovoy et al. (2022)

## CC[C@H](C)CCCCC(=O)N[C@@H](CCN)C(=O)N[C@H](C(=O)N[C@@H](CCN)C(=O)N[C@H]1CCNC(=O)[C@H]([C@@H](C)O)NC(=O)[C@H](CCN)NC(=O)[C@H](CCN)NC(=O)[C@H](CC(C)C)NC(=O)[C@@H](Cc2ccccc2)NC(=O)[C@H](CCN)NC1=O)[C@@H](C)O [polymyxin B] (X1-[Dab]T[Dab][Dab][Dab][dF]L[Dab][Dab]T; lactam 4-C)
Acutely ill patients, n = 52, 156 samples, two-compartment model, ref Miglis et al. (2018)
  CL: 2.63 L/h
[1]
  Q: 2.32 L/h
  V1: 33.8 L
  V2: 78.2 L
Clinical Samples, n = 43, 134 samples, one-compartment model, ref Kubin et al. (2018)
  CL: 2.37 L/h
Clinical Samples, n = 43, one-compartment model, ref Kubin et al. (2018)
  V: 34.4 L
Critically ill patients undergoing CRRT, n = 53 with/without CRRT, two-compartment model, ref Luo et al. (2022)
  CLCRRT: 1.95 L/h
Critically ill patients with CVVH, n = 53, 275 samples, two-compartment model, ref Wang et al. (2022)
  CL: 1.95 L/h
[2]
  CLCVVH: 4.52 L/h
  Q: 2.28 L/h
  V: 15.0 L
  V2: 6.54 L
Critically ill patients with/without CRRT, n = 53, 189 samples, two-compartment model, ref Luo et al. (2022)
  CLwithoutCRRT: 1.5 L/h
[3]
  Q: 1.34 L/h
  V: 11.7 L
  V2: 17.9 L
Critically ill patients, n = 24, 100 samples, two-compartment model, ref Sandri et al. (2013)
  CL: 1.66 L/h
[4]
  Q: 8.76 L/h
  V1: 5.63 L
  V2: 19.8 L
[5]
  CL: 1.62 L/h
  Q2: 8.4 L/h
  Q3: 0.384 L/h
  V: 4.26 L
  V2: 3.66 L
  V3: 2.7 L
Individuals with severe infections, n = 35, 139 samples, one-compartment model, ref Manchandani et al. (2018)
  CL: 2.5 L/h
Individuals with severe infections, n = 35, one-compartment model, ref Manchandani et al. (2018)
  V: 34.3 L
Patients with MDR-GNB infections, n = 46, 331 samples, two-compartment model, ref Wang et al. (2020)
  CL: 1.786 L/h
[6]
  Q: 13.518 L/h
  V1: 6.218 L
  V2: 11.922 L
Patients with TDM, n = 32, 112 samples, one-compartment model, ref Yu et al. (2021)
  CL: 1.59 L/h
Patients with TDM, n = 32, one-compartment model, ref Yu et al. (2021)
  V: 20.5 L
[7]
  CL: 1.16 L/h
  V: 19.73 L
Renal transplant patients, n = 50, 151 samples, one-compartment model, ref Li et al. (2021)
  CL: 1.18 L/h
Renal transplant patients, n = 50, one-compartment model, ref Li et al. (2021)
  V: 12.09 L
